{"source": "paper PMC6420499", "about": "(Scientific Reports, 2019)", "key": {"CYP26": {"test_system": "CYP26", "design": "method as in PMID 21521770", "conditions": "cited from earlier work"}, "recombinant CYP3A7": {"target": "T1, recombinant CYP3A7 (Homo sapiens, UniProt P24462)", "T1 construct": "purchased BD Gentest", "T1 sequence (P24462 whole entry)": "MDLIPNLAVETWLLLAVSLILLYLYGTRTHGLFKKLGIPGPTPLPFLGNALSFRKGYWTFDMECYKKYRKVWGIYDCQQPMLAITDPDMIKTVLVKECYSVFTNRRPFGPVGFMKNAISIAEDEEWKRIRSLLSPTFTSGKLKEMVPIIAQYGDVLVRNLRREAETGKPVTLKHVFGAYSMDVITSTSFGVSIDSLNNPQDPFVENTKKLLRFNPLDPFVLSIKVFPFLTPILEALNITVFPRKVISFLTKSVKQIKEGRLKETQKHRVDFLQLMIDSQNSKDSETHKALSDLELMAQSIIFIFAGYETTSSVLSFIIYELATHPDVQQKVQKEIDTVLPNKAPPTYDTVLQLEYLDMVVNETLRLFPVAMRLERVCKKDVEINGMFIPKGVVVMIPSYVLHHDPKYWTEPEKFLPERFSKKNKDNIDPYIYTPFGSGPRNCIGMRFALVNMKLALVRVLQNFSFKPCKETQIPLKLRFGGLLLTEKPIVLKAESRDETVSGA", "test": "Inhibition of recombinant CYP3A7 mediated 4-OH-RA formation", "type": "biochemical", "conditions": "CYP3A7 5 pmol/mL, 10 min", "protocol": "(§1) Talarozole was chosen as the CYP26 inhibitor based on previous characterization of its potency towards CYP26A1 and CYP26B1[34]. Ketoconazole was included in the analysis as it is a well characterized pan-CYP inhibitor with high potency both towards CYP3A7 and CYP26s[16],[34]. […] All of the samples were extracted and analyzed by HPLC-MS/MS. […] Incubations were performed as described above for fetal livers and analyzed for metabolite formation by HPLC-MS/MS. The percent inhibition was calculated by comparing the metabolite formation velocity in the presence of the inhibitor to vehicle control.\n(§2) The aqueous phase contained 0.1 % formic acid throughout."}, "[1]": {"test_system": "CYP3A7 (atRA metabolite formation in fetal liver S9)", "test": "Inhibition of atRA metabolite formation in human fetal liver S9 fractions by CYP selective inhibitors", "type": "in vitro ADME", "conditions": "human, human fetal liver S9 fractions, probe atRA (all-trans retinoic acid), 500 nM", "protocol": "as §1, §2"}, "[2]": {"test": "In vitro to in vivo scaling of atRA metabolism, fetal liver extraction ratio (well-stirred model)", "type": "in vitro ADME, human", "conditions": "at any gestational age"}, "recombinant CYP26B1": {"target": "T2, recombinant CYP26B1 (Homo sapiens, UniProt Q9NR63)", "T2 construct": "made in house; host or cells: baculovirus infected insect cells (membrane fractions)", "T2 sequence (Q9NR63 1-512)": "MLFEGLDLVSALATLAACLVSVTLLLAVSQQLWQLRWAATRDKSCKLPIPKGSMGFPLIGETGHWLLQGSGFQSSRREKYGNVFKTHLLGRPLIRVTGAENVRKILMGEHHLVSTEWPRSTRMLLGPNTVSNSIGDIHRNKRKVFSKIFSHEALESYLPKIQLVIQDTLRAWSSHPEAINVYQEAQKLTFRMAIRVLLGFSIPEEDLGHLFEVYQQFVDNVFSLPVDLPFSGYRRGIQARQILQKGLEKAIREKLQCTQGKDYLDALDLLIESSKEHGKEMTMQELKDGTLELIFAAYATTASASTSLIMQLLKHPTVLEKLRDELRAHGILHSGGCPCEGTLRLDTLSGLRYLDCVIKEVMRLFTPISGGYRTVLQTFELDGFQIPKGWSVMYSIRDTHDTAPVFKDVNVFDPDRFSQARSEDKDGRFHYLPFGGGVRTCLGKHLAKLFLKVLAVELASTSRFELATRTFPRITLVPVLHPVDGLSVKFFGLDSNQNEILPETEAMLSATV", "test": "Metabolite identification, atRA with recombinant CYP26B1", "type": "in vitro ADME", "conditions": "5 µM atRA, 5 pmol CYP26B1, 10 min", "excerpt": "as §2"}, "[3]": {"design": "method as in PMID 20513361", "conditions": "value used for scaling; cited from earlier work"}, "recombinant CYP26A1 [4]": {"target": "T3, recombinant CYP26A1 (Homo sapiens, UniProt O43174)", "T3 construct": "made in house; host or cells: baculovirus infected insect cells (membrane fractions)", "T3 sequence (O43174 1-497)": "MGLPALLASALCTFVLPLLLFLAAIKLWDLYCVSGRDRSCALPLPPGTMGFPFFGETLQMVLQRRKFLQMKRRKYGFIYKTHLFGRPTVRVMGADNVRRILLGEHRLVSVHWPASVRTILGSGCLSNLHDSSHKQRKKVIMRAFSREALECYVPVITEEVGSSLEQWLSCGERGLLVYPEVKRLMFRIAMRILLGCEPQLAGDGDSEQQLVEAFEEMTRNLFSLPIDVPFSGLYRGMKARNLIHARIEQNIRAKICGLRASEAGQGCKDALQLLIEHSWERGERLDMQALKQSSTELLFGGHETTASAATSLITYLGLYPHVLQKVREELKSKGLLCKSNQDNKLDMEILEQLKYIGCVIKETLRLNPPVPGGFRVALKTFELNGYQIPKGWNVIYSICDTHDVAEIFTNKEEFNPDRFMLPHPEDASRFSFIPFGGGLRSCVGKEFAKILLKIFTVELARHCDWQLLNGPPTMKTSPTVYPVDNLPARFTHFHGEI", "test": "Metabolite identification, atRA with recombinant CYP26A1", "type": "in vitro ADME", "conditions": "5 µM atRA, 5 pmol CYP26A1, 2 min", "protocol": "(§3) The incubations were quenched with ethyl acetate, metabolites extracted as previously described[15] and the product formation was then measured by LC-MS/MS as described below. For fetal liver S9 incubations two representative livers were chosen based on the mRNA expression levels of CYP3A7 and CYP26A1. […] After a pre-incubation of 5 min the reactions were initiated with the addition of NADPH (1 mM final concentration) and allowed to proceed for 10 min.\n(§4) In brief, analytes were separated using a gradient elution as follows: starting from 10:90 acetonitrile: aqueous to 1:1 acetonitrile: aqueous over 0.5 min then increased to 85:15 acetonitrile: aqueous over 4 min and then after a 0.1 min hold increased to 95:5 acetonitrile: aqueous held for 2.5 min. The aqueous phase contained 0.1 % formic acid throughout. […] Retinoid concentrations were quantified using Analyst software and peak height ratios between the analyte and the internal standard (4-oxo-RA-d3)."}, "[5]": {"test": "Metabolite identification, atRA in representative human fetal liver S9 fractions", "type": "in vitro ADME", "conditions": "5 µM atRA, 0.3 mg S9 protein in 1 mL, 10 min, two representative livers", "protocol": "as §3, §4"}, "[6]": {"test": "atRA metabolite formation in human placental S9 preparations", "type": "in vitro ADME", "conditions": "preliminary studies, data not shown"}, "CYP3A7": {"test_system": "CYP3A7", "design": "method as in PMID 21521770", "conditions": "cited from earlier work"}, "[7]": {"test_system": "atRA metabolite formation in human fetal liver S9 fractions", "test": "Inhibition of atRA metabolite formation in human fetal liver S9 fractions by CYP selective inhibitors", "type": "in vitro ADME", "conditions": "ketoconazole 10 µM, atRA 500 nM, S9 fractions from four representative donors, vs vehicle control", "protocol": "as §1, §2"}, "recombinant CYP26A1 [8]": {"target": "T3, recombinant CYP26A1", "test": "Inhibition of recombinant CYP26A1 mediated 4-OH-RA formation", "type": "biochemical", "conditions": "talarozole 200 nM, atRA 500 nM, CYP26A1 2 pmol/mL, 2 min", "protocol": "as §1, §2"}, "[9]": {"test_system": "CYP26 (atRA metabolite formation in fetal liver S9)", "test": "Inhibition of atRA metabolite formation in human fetal liver S9 fractions by CYP selective inhibitors", "type": "in vitro ADME", "conditions": "human, human fetal liver S9 fractions, probe atRA (all-trans retinoic acid), 500 nM", "protocol": "as §1, §2"}}, "data": [{"molecule": "OC(Cn1cncn1)(Cn1cncn1)c1ccc(F)cc1F", "note": "[fluconazole]", "values": [{"measurement": "inhibition of CYP26", "setting": "CYP26", "result": "not to inhibit"}, {"measurement": "inhibition of CYP3A7 mediated 4-OH-atRA formation", "setting": "recombinant CYP3A7; fluconazole 300 μM, atRA 10 µM", "result": "confirmed"}, {"measurement": "inhibition at 200 µM", "setting": "[1]", "result": "30 to 60", "unit": "%"}]}, {"molecule": "CC1=C(/C=C/C(C)=C/C=C/C(C)=C/C(=O)O)C(C)(C)CCC1", "note": "[atRA, All-trans-retinoic acid]", "values": [{"measurement": "maternal atRA that could be extracted by fetal liver", "setting": "[2]", "result": "≤ 5", "unit": "%"}, {"measurement": "atRA metabolites formed", "setting": "recombinant CYP26B1", "result": "hydroxylated atRA at multiple sites"}, {"measurement": "plasma unbound fraction (fu)", "setting": "[3]", "result": 0.01}, {"measurement": "atRA metabolites formed", "setting": "recombinant CYP26A1 [4]", "result": "hydroxylated atRA at multiple sites"}, {"measurement": "atRA metabolites observed", "setting": "[5]", "result": "only the formation of 4-OH-RA and its metabolite 4-oxo-RA was observed"}, {"measurement": "formation of atRA metabolites", "setting": "[6]", "result": "did not observe any formation of atRA metabolites"}]}, {"molecule": "CC(=O)N1CCN(c2ccc(OCC3COC(Cn4ccnc4)(c4ccc(Cl)cc4Cl)O3)cc2)CC1", "note": "(stereo not drawn) [ketoconazole]", "values": [{"measurement": "inhibition of CYP26", "setting": "CYP26", "result": "inhibits"}, {"measurement": "inhibition of CYP3A7", "setting": "CYP3A7", "result": "inhibits"}, {"measurement": "decrease in atRA metabolite formation", "setting": "[7]", "result": "> 95", "unit": "%"}]}, {"molecule": "CCC(CC)C(c1ccc(Nc2nc3ccccc3s2)cc1)n1cncn1", "note": "(stereo not drawn) [talarozole]", "values": [{"measurement": "inhibition of CYP26A1", "setting": "recombinant CYP26A1 [8]", "result": "reproduced"}, {"measurement": "inhibition of CYP3A7 mediated 4-OH-RA formation", "setting": "recombinant CYP3A7; talarozole 200 nM, atRA 500 nM", "result": "did not significantly inhibit"}, {"measurement": "inhibition at 200 nM", "setting": "[9]", "result": "30 to 40", "unit": "%"}]}]}
